Data set [1] deals with Wnt-responsive promoter (TCF/LEF). Put plainly: Wnt-dependent luciferase reporter assay. The data set is classed as cell-based, murine. The gist of the method: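 EC50 (uM) derived from inhibition of luminescence in Wnt3a-stimulated murine 3T3 cells expressing luciferase under a TCF/LEF promoter, with peptides added across a concentration range and vehicle as control.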
The target of a further data set is T1, β-catenin (Homo sapiens, UniProt P35222).
T1 sequence (P35222 1-781): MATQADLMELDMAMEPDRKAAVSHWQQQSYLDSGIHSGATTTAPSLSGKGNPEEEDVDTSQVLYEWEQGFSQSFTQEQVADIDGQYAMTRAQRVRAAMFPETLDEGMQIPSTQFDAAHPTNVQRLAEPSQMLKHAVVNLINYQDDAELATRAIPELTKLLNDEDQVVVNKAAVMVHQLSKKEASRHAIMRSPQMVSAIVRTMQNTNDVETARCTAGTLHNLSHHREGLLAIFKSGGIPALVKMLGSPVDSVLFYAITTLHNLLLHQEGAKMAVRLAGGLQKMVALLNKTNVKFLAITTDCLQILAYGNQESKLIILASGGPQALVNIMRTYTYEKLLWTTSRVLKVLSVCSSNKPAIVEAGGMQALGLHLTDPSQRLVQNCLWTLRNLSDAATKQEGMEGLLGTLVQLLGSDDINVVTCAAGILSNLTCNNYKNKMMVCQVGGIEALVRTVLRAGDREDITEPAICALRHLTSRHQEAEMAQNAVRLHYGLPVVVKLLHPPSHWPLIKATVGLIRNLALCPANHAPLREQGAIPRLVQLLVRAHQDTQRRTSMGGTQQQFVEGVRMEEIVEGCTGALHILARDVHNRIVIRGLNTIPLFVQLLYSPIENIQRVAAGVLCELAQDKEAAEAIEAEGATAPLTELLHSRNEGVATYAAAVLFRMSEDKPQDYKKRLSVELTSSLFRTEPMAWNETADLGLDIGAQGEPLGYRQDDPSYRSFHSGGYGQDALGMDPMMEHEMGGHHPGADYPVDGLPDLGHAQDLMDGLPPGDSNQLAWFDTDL
Nature of the data set: KD50 measurement using competitive fluorescence polarization (FP) with labelled TCF4. The class given is binding. To be noted: fluorescence polarization, β-catenin; for Kd: read-out: β-Cat FP KD. The method in brief: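 5 nM labelled TCF4 was combined with 100 nM β-catenin at room temperature, then inhibitor was titrated in serial dilutions from 10 nM to 30 uM. Polarization was read at excitation 470 nm, emission 520 nm; displacement lowers the signal. Three independent experiments.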

The conditions of data set [2]: % Viability non-Wnt responsive cells.

The structures appear in SMILES notation. Where a SMILES comes first, the peptide text is derived from it.

For orientation: EC50 means the concentration needed to bring the measured effect to its halfway point. Low readings indicate higher potency in that assay, high ones lower potency in that assay. One may read the Kd as the free concentration of one partner at which half of the binding sites on the other are occupied at equilibrium, for simple one-to-one binding. One may read the viability as a read-out of living cells in per cent, often relative to untreated cells.

The compound `CC[C@H](C)[C@@H]1NC(=O)[C@H](CC(C)C)NC(=O)[C@H](Cc2ccccc2)NC(=O)[C@H](Cc2c[nH]c3ccccc23)NC(=O)[C@H](CCSC)NC(=O)CCCCCNC(=O)C[C@@H](C(=O)O)NC(=O)[C@H](Cc2c[nH]c3ccccc23)NC(=O)[C@H](C)NC(=O)[C@H](CS)NC1=O` [compound 192] (HELM PEPTIDE1{[O=C(CCCCCN[*:1])[*:2]].M.W.F.L.I.C.A.W.D}$PEPTIDE1,PEPTIDE1,1:R1-10:R3$$$V2.0) displayed an EC50 in data set [1] below 7.5 µM. Besides, at β-catenin, the “β-Cat FP Hill slope” value is on record as 1.33 and the Kd is below 0.4 µM. Besides, the viability in data set [2] turned out to be 103%.

As for `CC[C@H](C)[C@H](NC(=O)[C@H](CC(C)C)NC(=O)[C@H](Cc1ccccc1)NC(=O)[C@H](Cc1c[nH]c2ccccc12)NC(C)=O)C(=O)N[C@@H](CS)C(=O)N[C@@H](Cc1ccccc1)C(=O)N[C@@H](Cc1c[nH]c2ccccc12)C(=O)NCC(=O)O` [compound 194] (Ac-WFLICFWG-OH), in data set [1], the EC50 is below 7.5 µM. At β-catenin, the “β-Cat FP Hill slope” value came out at 3 and the dissociation constant Kd is 0.4 to 1 µM. The viability in data set [2] is 106%.

Take `CC[C@H](C)[C@H](NC(=O)[C@H](CC(C)C)NC(=O)[C@@H](NC(=O)[C@H](Cc1c[nH]c2ccccc12)NC(C)=O)[C@@H](C)CC)C(=O)N[C@@H](CO)C(=O)N[C@@H](Cc1ccccc1)C(=O)N[C@@H](Cc1c[nH]c2ccccc12)C(=O)NCC(=O)O` [compound 195] (Ac-WILISFWG-OH): the EC50 in data set [1] was below 7.5 µM. For the same compound, at β-catenin, the “β-Cat FP Hill slope” value was found to be 3 and the Kd was below 0.4 µM. The viability in data set [2] is 105%.

`CC[C@H](C)[C@H](NC(=O)[C@H](CC(C)C)NC(=O)[C@H](Cc1ccccc1)NC(=O)[C@H](Cc1c[nH]c2ccccc12)NC(C)=O)C(=O)N[C@@H](C)C(=O)N[C@@H](Cc1ccccc1)C(=O)N[C@@H](Cc1c[nH]c2ccccc12)C(=O)NCC(=O)O` [compound 196] (Ac-WFLIAFWG-OH) returned an EC50 in data set [1] below 7.5 µM. Further, at β-catenin, the “β-Cat FP Hill slope” value is 2.58 and the Kd was in the range of 0.4 to 1 µM. Further, the viability in data set [2] came to 105%.

In turn, `CC[C@H](C)[C@H](NC(=O)[C@H](CC(C)C)NC(=O)[C@H](Cc1ccccc1)NC(=O)[C@H](Cc1c[nH]c2ccccc12)NC(=O)[C@H](CCSC)NC(C)=O)C(=O)N[C@@H](CS)C(=O)N[C@@H](Cc1ccccc1)C(=O)N[C@@H](Cc1c[nH]c2ccccc12)C(=O)NCCCC(=O)O` [compound 197] (HELM PEPTIDE1{[ac].M.W.F.L.I.C.F.W.[O=C(O)CCCN[*:1]]}$$$$V2.0) came in with an EC50 in data set [1] below 7.5 µM. On β-catenin, the “β-Cat FP Hill slope” value came out at 1.52 and the Kd lay in the range of 0.4 to 1 µM. Further, the viability in data set [2] was 89.8%.

Regarding `CC[C@H](C)[C@H](NC(=O)[C@H](CC(C)C)NC(=O)[C@H](Cc1ccccc1)NC(=O)[C@H](Cc1c[nH]c2ccccc12)NC(=O)[C@H](CCSC)NC(C)=O)C(=O)N[C@@H](CS)C(=O)N[C@@H](Cc1ccccc1)C(=O)N[C@@H](Cc1c[nH]c2ccccc12)C(=O)NCC(=O)O` [compound 198] (Ac-MWFLICFWG-OH), the EC50 in data set [1] is below 7.5 µM. Also, on β-catenin, the “β-Cat FP Hill slope” value was found to be 2.18 and the Kd fell in the range of 0.4 to 1 µM. In addition, in data set [2], the viability worked out at 81.4%.

Compound `CC[C@H](C)[C@@H]1NC(=O)[C@H](CC(C)C)NC(=O)[C@H](Cc2ccccc2)NC(=O)[C@H](Cc2c[nH]c3ccccc23)NC(=O)[C@@H](NC(C)=O)CCCCNC(=O)CC[C@@H](C(=O)O)NC(=O)[C@H](Cc2c[nH]c3ccccc23)NC(=O)[C@H](Cc2ccccc2)NC(=O)[C@H](CO)NC1=O` [compound 199] (HELM PEPTIDE1{[ac].K.W.F.L.I.S.F.W.E}$PEPTIDE1,PEPTIDE1,2:R3-10:R3$$$V2.0) displayed an EC50 in data set [1] below 7.5 µM. Besides, on β-catenin, the “β-Cat FP Hill slope” value is on record as 0.7 and the Kd lay within 0.4 to 1 µM. For the same compound, the viability in data set [2] was 89.8%.

`CC[C@H](C)[C@@H]1NC(=O)[C@H](CC(C)C)NC(=O)[C@H](Cc2ccccc2)NC(=O)[C@H](Cc2c[nH]c3ccccc23)NC(=O)[C@@H](NC(C)=O)CCCCNC(=O)CC[C@@H](C(=O)O)NC(=O)[C@H](Cc2c[nH]c3ccccc23)NC(=O)[C@H](Cc2ccccc2)NC(=O)[C@H](C)NC1=O` [compound 200] (HELM PEPTIDE1{[ac].K.W.F.L.I.A.F.W.E}$PEPTIDE1,PEPTIDE1,2:R3-10:R3$$$V2.0) registered an EC50 in data set [1] below 7.5 µM. At β-catenin, the “β-Cat FP Hill slope” value is 0.7 and the Kd was in the range of 1 to 10 µM. For the same compound, the viability in data set [2] amounted to 81.4%.

`CC[C@H](C)[C@@H]1NC(=O)[C@H](CC(C)C)NC(=O)[C@H](Cc2ccccc2)NC(=O)[C@H](Cc2c[nH]c3ccccc23)NC(=O)[C@@H](N)CCCCNC(=O)CC[C@@H](C(=O)O)NC(=O)[C@H](Cc2c[nH]c3ccccc23)NC(=O)[C@H](Cc2ccccc2)NC(=O)[C@H](C)NC1=O` [compound 201] (HELM PEPTIDE1{K.W.F.L.I.A.F.W.E}$PEPTIDE1,PEPTIDE1,1:R3-9:R3$$$V2.0) returned a concentration for a half-maximal effect (EC50) in data set [1] of 22.5 to 30 µM. Moreover, on β-catenin, the “β-Cat FP Hill slope” value worked out at 0.7 and the Kd lay within 1 to 10 µM. For the same compound, the viability in data set [2] was found to be 60.1%.

`CC[C@H](C)[C@@H]1NC(=O)[C@H](CC(C)C)NC(=O)[C@H](Cc2ccccc2)NC(=O)[C@H](Cc2c[nH]c3ccccc23)NC(=O)[C@@H](N)CCCCNC(=O)C[C@@H](C(=O)O)NC(=O)[C@H](Cc2c[nH]c3ccccc23)NC(=O)[C@H](C)NC(=O)[C@H](CO)NC1=O` [compound 202] (HELM PEPTIDE1{K.W.F.L.I.S.A.W.D}$PEPTIDE1,PEPTIDE1,1:R3-9:R3$$$V2.0): the EC50 in data set [1] lay within 22.5 to 30 µM. For the same compound, the dissociation constant Kd on β-catenin is above 30 µM. Also, the viability in data set [2] stood at 92.1%.

On to `CC[C@H](C)[C@@H]1NC(=O)[C@H](CC(C)C)NC(=O)[C@H](CC2CCCCC2)NC(=O)[C@H](Cc2c[nH]c3ccccc23)NC(=O)[C@@H](N)CCCCNC(=O)C[C@@H](C(=O)O)NC(=O)[C@H](Cc2c[nH]c3ccccc23)NC(=O)[C@H](C)NC(=O)[C@H](CO)NC1=O` [compound 203] (HELM PEPTIDE1{K.W.[Cha].L.I.S.A.W.D}$PEPTIDE1,PEPTIDE1,1:R3-9:R3$$$V2.0), for which the EC50 in data set [1] was in the range of 7.5 to 15 µM. The dissociation constant Kd on β-catenin is above 30 µM. The viability in data set [2] came to 98%.

As to `CC[C@H](C)[C@@H]1NC(=O)[C@H](CC(C)C)NC(=O)[C@H](C2CCCCC2)NC(=O)[C@H](Cc2c[nH]c3ccccc23)NC(=O)[C@@H](N)CCCCNC(=O)C[C@@H](C(=O)O)NC(=O)[C@H](Cc2c[nH]c3ccccc23)NC(=O)[C@H](C)NC(=O)[C@H](CO)NC1=O` [compound 204] (HELM PEPTIDE1{K.W.[O=C([C@@H](N[*:1])C1CCCCC1)[*:2]].L.I.S.A.W.D}$PEPTIDE1,PEPTIDE1,1:R3-9:R3$$$V2.0), the EC50 in data set [1] is below 7.5 µM. Further, on β-catenin, the “β-Cat FP Hill slope” value was determined as 0.74 and the Kd was 0.4 to 1 µM. In addition, the viability in data set [2] was 108%.

For `CC[C@H](C)[C@@H]1NC(=O)[C@H](CC(C)C)NC(=O)[C@H](C(C)(C)C)NC(=O)[C@H](Cc2c[nH]c3ccccc23)NC(=O)[C@@H](N)CCCCNC(=O)C[C@@H](C(=O)O)NC(=O)[C@H](Cc2c[nH]c3ccccc23)NC(=O)[C@H](C)NC(=O)[C@H](CO)NC1=O` [compound 205] (HELM PEPTIDE1{K.W.[CC(C)(C)[C@H](N[*:1])C(=O)[*:2]].L.I.S.A.W.D}$PEPTIDE1,PEPTIDE1,1:R3-9:R3$$$V2.0), the EC50 in data set [1] is above 30 µM. At β-catenin, the Kd was above 30 µM. For the same compound, the viability in data set [2] is 114%.

Compound `CC[C@H](C)[C@@H]1NC(=O)[C@H](CC(C)C)NC(=O)[C@H](CC(C)C)NC(=O)[C@H](Cc2c[nH]c3ccccc23)NC(=O)[C@@H](N)CCCCNC(=O)C[C@@H](C(=O)O)NC(=O)[C@H](Cc2c[nH]c3ccccc23)NC(=O)[C@H](C)NC(=O)[C@H](CO)NC1=O` [compound 206] (HELM PEPTIDE1{K.W.L.L.I.S.A.W.D}$PEPTIDE1,PEPTIDE1,1:R3-9:R3$$$V2.0) came in with a half-maximal effective concentration (EC50) in data set [1] of 15 to 22.5 µM. At β-catenin, the Kd was above 30 µM. Moreover, in data set [2], the viability was determined as 98.7%.

`CC[C@H](C)[C@@H]1NC(=O)[C@H](CC(C)C)NC(=O)[C@H](Cc2ccccc2)NC(=O)[C@H](Cc2c[nH]c3ccccc23)NC(=O)[C@@H](N)CCCCNC(=O)CNC(=O)C[C@@H](C(=O)O)NC(=O)[C@H](Cc2c[nH]c3ccccc23)NC(=O)[C@H](C)NC(=O)[C@H](CS)NC1=O` [compound 207] (HELM PEPTIDE1{K.W.F.L.I.C.A.W.[O=C(O)[C@H](CC(=O)[*:2])N[*:1]].G}$PEPTIDE1,PEPTIDE1,1:R3-10:R2$$$V2.0) came in with an EC50 in data set [1] below 7.5 µM. At β-catenin, the “β-Cat FP Hill slope” value came out at 0.7 and the Kd fell in the range of 0.4 to 1 µM. In addition, the viability in data set [2] came out at 107%.

(Values after US12441768B2, “Compositions and methods for treating endometriosis” (EndoMet Biosciences, Inc., priority 2018, dated 2025).)
